Reference: US20180002400A1, “SHORT PEPTIDE-BASED THERAPEUTIC AGENT AND MEDICINAL COMPOSITION INCLUDING THE SAME FOR INHIBITING ACTIVITIES OF CANCER CELLS” (NATIONAL CHENG KUNG UNIVERSITY, priority 2015, published 2018)

Columns and labels:
breast cancer MB231 cell [1] = assay: Drug resistance (CDDP, 5-FU) induced by euPTX3, MTT assay; assay type: cell-based, human; conditions: MB231; short peptide 10 μg/mL or 225 nM + euPTX3 2.5 μg/mL 1 week, then 40 μM CDDP or 100 μM 5-FU 48 hours; FIG. 1D
Method: (§1) The cell density 1×10^4 cells/well of the breast cancer MB231 cell, the lung cancer A549 cell and the nasopharyngeal cancer HONE1 cell were co-cultured with the short peptides RI37, GI40 and KT44 (10 μg/mL or 225 nM of the short peptide) and the polypeptide euPTX3 (2.5 μg/mL) of Example 1. After 1 week of cultivation, those cancer cells were added with 40 μM of CDDP or 100 μM of 5-FU respectively and cultured for 48 hours. Based on the cell viability of the cells only co-cultured with the polypeptide euPTX3 (2.5 μg/mL) as 100%, the influence of drug resistance of the cancer cells of Example 2 using the short peptides of Example 1 could be determined according to the aforementioned MTT assay.

lung cancer A549 cell [2] = assay: as above; assay type: cell-based, human; conditions: A549; short peptide 10 μg/mL or 225 nM + euPTX3 2.5 μg/mL 1 week, then 40 μM CDDP or 100 μM 5-FU 48 hours; FIG. 2B
Method: as §1

[3] = system: nasopharyngeal cancer HONE1 cell; assay: as above; assay type: cell-based, human; conditions: HONE1; short peptide 10 μg/mL or 225 nM + euPTX3 2.5 μg/mL 1 week, then 40 μM CDDP or 100 μM 5-FU 48 hours; FIG. 3B
Method: as §1

[4] = system: drug-resistant 4T1R breast cancer; assay: Allograft tumor model, CDDP-resistant 4T1R cells in BALB/c mice; assay type: in vivo, mouse; conditions: 4T1R in BALB/c mice; for drug resistance generated by the tumor: 50 μg short peptide intratumorally twice weekly combined with CDDP 5 mg/kg i.p. once weekly; for drug resistance generated by the tumor / tumor growth (tumor size): FIG. 4A; for tumor growth (tumor size): 50 μg short peptide intratumorally twice weekly; for tumor metastasis and growth (images of tumors of various organs, epi-fluorescence radiance efficiency): IVIS imaging; for tumor metastasis (number of metastatic nodules per lung) / tumor growth (tumor weight per lung): sacrificed after six weeks; for tumor metastasis (number of metastatic nodules per lung): FIG. 4B left panel; for tumor growth (tumor weight per lung): FIG. 4B right panel
Method: In this Example, 1×10^6 mCherry fluorescent protein-labeled CDDP-resistant mouse 4T1 cells (4T1R; ATCC CRL-2539) were inoculated subcutaneously to the rear side of the back of six to eight-week-old female BALB/c mice (purchased from Laboratory Animal Center of National Cheng Kung University). After 1 week of inoculation, the mice were intraperitoneally injected with 5 mg/kg of CDDP [dissolved in 1% (w/v) DMSO] or only 1% (w/v) of DMSO once weekly, and intratumorally uninjected or injected with 50 μg of the short peptides RI37, GI40 and KT44 of Example 1 twice weekly. The mice were sacrificed after six weeks of inoculation. Spleen, kidneys, lungs and liver were obtained, tumor weight of those organs were measured according to 6 replications per group, and the metastatic activity and the number of metastatic nodules per organ were confirmed by IVIS Spectrum Imaging System 200 (Caliper). The tumor size was measured by a commercial external caliper, and the tumor volume (V) was calculated by the following formula (I): […]
In the formula (I), w was referred to tumor width, l was referred to tumor length. Each condition of the experiment was repeated at least thrice.

[5] = system: drug-resistant MB231R breast cancer; assay: Xenograft tumor model, CDDP-resistant MB231R cells in NOD-SCID mice; assay type: in vivo, mouse; conditions: for drug resistance generated by the tumor: 50 μg short peptide intratumorally twice weekly combined with CDDP 5 mg/kg i.p. once weekly; for drug resistance generated by the tumor / tumor growth (tumor size): FIG. 4D; for tumor growth (tumor size): 50 μg short peptide intratumorally twice weekly; for tumor metastasis and growth (images of tumors of various organs, epi-fluorescence radiance efficiency): IVIS imaging; for tumor metastasis (number of metastatic nodules per lung) / tumor growth (tumor weight per lung): sacrificed after ten weeks; for tumor metastasis (number of metastatic nodules per lung): FIG. 4E left panel; for tumor growth (tumor weight per lung): FIG. 4E right panel
Method: Besides, 1×10^6 mCherry fluorescent protein-labeled CDDP-resistant human MDA-MB-231 cells (MB231R; ATCC CRL-2539) were inoculated subcutaneously to the rear side of the back of six to eight-week-old female NOD-SCID immunodeficiency mice (purchased from Laboratory Animal Center of National Cheng Kung University). After 1 week of inoculation, the mice were intraperitoneally injected with 5 mg/kg of CDDP [dissolved in 1% (w/v) DMSO] or only 1% (w/v) of DMSO once weekly, and intratumorally uninjected or injected with 50 μg of the short peptides RI37, GI40 and KT44 of Example 1 twice weekly. The mice were sacrificed after ten weeks of inoculation. Spleen, kidneys, lungs and liver were obtained, tumor weight of those organs were measured according to 3 replications per group, and the metastatic activity and the number of metastatic nodules per organ were confirmed by IVIS Spectrum Imaging System. The tumor size was measured by a commercial external caliper, and the tumor volume (V) was calculated by the following formula (I). Each condition of the experiment was repeated at least thrice.

breast cancer MB231 cell [6] = assay: Sphere formation (cancer stemness) induced by euPTX3; assay type: cell-based, human; conditions: short peptide 10 μg/mL or 225 nM + euPTX3 2.5 μg/mL, 2 weeks, FIG. 1C
Method: (§2) Each well of the multi-well plate with ultra-low attachment surface (Corning Inc.) was inoculated with the cell density 5×10^3 cells/well of the breast cancer MB231 cell, the lung cancer A549 cell and the nasopharyngeal cancer HONE1 cell, all of which were co-cultured with the short peptides R137, GI40, KT44 (10 μg/mL or 225 nM of the short peptide) and the polypeptide euPTX3 (2.5 μg/mL) of Example 1 in serum-free medium DMEM/F12 (Gibco) [containing B27 (Invitrogen), 20 ng/mL of epidermal growth factor (EGF; Abcam) and 10 ng/mL of basic Fibroblast Growth Factor (bFGF; Peprotech)]. After 2 weeks of cultivation, the cell spheres were observed by optical microscopy.

lung cancer A549 cell [7] = assay: as above; assay type: cell-based, human; conditions: short peptide 10 μg/mL or 225 nM + euPTX3 2.5 μg/mL, 2 weeks, FIG. 2A
Method: as §2

[8] = system: nasopharyngeal cancer HONE1 cell; assay: as above; assay type: cell-based, human; conditions: short peptide 10 μg/mL or 225 nM + euPTX3 2.5 μg/mL, 2 weeks, FIG. 3A
Method: as §2

[9] = system: drug-resistant breast cancer MB231R (MBR) cells; assay: Cancer cell invasion (matrigel-coated insert) induced by euPTX3; assay type: cell-based, human
[10] = MB231R (MBR), identical molecular number: euPTX3 2.5 μg/mL, RI37 3.7 μg/mL, GI40 4 μg/mL, pPTX3/C 10 μg/mL, FIG. 5B right panel
[11] = breast cancer cells, short peptide 10 μg/mL + euPTX3 2.5 μg/mL, FIG. 1E right panel

GI40: artificially synthetic short peptide having the amino acid sequence listed as SEQ ID NO:2, designed from human PTX3 (NP_002843.2) (GGGFDETLAFSGRLTGFNIWDSVLSNEEIRETGGAESCHI; The 320th amino acid to 359th amino acid of Human sapiens PTX3 (GI40))
drug resistance induced by the polypeptide euPTX3 (cell viability) (breast cancer MB231 cell [1]): could effectively inhibit the drug resistance
drug resistance induced by the polypeptide euPTX3 (cell viability) (lung cancer A549 cell [2]): could effectively inhibit the drug resistance
drug resistance induced by the polypeptide euPTX3 (cell viability) [3]: could effectively inhibit the drug resistance
drug resistance generated by the tumor [4]: reduce the drug resistance
tumor growth (tumor size) [4]: could inhibit tumor growth
tumor metastasis and growth (images of tumors of various organs, epi-fluorescence radiance efficiency) ([4]; FIG. 4C): could inhibit tumor metastasis and growth
tumor metastasis (number of metastatic nodules per lung) [4]: could inhibit tumor metastasis
tumor growth (tumor weight per lung) [4]: could inhibit tumor metastasis and growth
drug resistance generated by the tumor [5]: reduce the drug resistance
tumor growth (tumor size) [5]: could inhibit tumor growth
tumor metastasis and growth (images of tumors of various organs, epi-fluorescence radiance efficiency) ([5]; FIG. 4F): could inhibit tumor metastasis and growth
tumor metastasis (number of metastatic nodules per lung) [5]: could inhibit tumor metastasis
tumor growth (tumor weight per lung) [5]: could inhibit tumor metastasis and growth
number of spheres induced by the polypeptide euPTX3 (breast cancer MB231 cell [6]): could effectively inhibit the number of spheres
number of spheres induced by the polypeptide euPTX3 (lung cancer A549 cell [7]): could effectively inhibit the number of spheres
number of spheres induced by the polypeptide euPTX3 [8]: could effectively inhibit the number of spheres
invasive cell numbers induced by the polypeptide euPTX3 [9, 10]: could effectively inhibit the invasive cell numbers
invasive cell numbers induced by the polypeptide euPTX3 [9, 11]: could effectively inhibit the invasive cell numbers

KT44: artificially synthetic peptide having the amino acid sequence listed as SEQ ID NO:3 (KLVAEAMVSLGRWTHLCGTWNSEEGLTSLWVNGELAATTVEMAT; The 255th amino acid to 298th amino acid of Human sapiens PTX3 (KT44))
drug resistance induced by the polypeptide euPTX3 (cell viability) (breast cancer MB231 cell [1]): could not significantly inhibit the drug resistance
drug resistance induced by the polypeptide euPTX3 (cell viability) (lung cancer A549 cell [2]): could not significantly inhibit the drug resistance
drug resistance induced by the polypeptide euPTX3 (cell viability) [3]: could not significantly inhibit the drug resistance
tumor growth (tumor size) [4]: could not significantly inhibit the tumor growth
metastatic nodules in organs (imaging) ([4]; FIG. 4C): metastatic nodules was found in lungs
tumor metastasis and growth (images of tumors of various organs, epi-fluorescence radiance efficiency) ([4]; FIG. 4C): could not significantly inhibit tumor metastasis and growth
tumor metastasis (number of metastatic nodules per lung) [4]: could not significantly inhibit tumor metastasis
tumor growth (tumor weight per lung) [4]: could not significantly inhibit tumor metastasis and growth
tumor growth (tumor size) [5]: could not significantly inhibit the tumor growth
metastatic nodules in organs (imaging) ([5]; FIG. 4F): metastatic nodules was found in lungs
tumor metastasis and growth (images of tumors of various organs, epi-fluorescence radiance efficiency) ([5]; FIG. 4F): could not significantly inhibit tumor metastasis and growth
tumor metastasis (number of metastatic nodules per lung) [5]: could not significantly inhibit tumor metastasis
tumor growth (tumor weight per lung) [5]: could not significantly inhibit tumor metastasis and growth
number of spheres induced by the polypeptide euPTX3 (breast cancer MB231 cell [6]): could not inhibit the number of spheres
number of spheres induced by the polypeptide euPTX3 (lung cancer A549 cell [7]): could not inhibit the number of spheres
number of spheres induced by the polypeptide euPTX3 [8]: could not inhibit the number of spheres
invasive cell numbers induced by the polypeptide euPTX3 [9, 11]: could not inhibit the invasive cell numbers

RI37: artificially synthetic short peptide having the amino acid sequence listed as SEQ ID NO:1, designed from human PTX3 (NP_002843.2) (RPMRLESFSACIWVKATDVLNKTILFSYGTKRNPYEI; The 200th amino acid to 236th amino acid of Human sapiens PTX3 (RI37))
drug resistance induced by the polypeptide euPTX3 (cell viability) (breast cancer MB231 cell [1]): could effectively inhibit the drug resistance
drug resistance induced by the polypeptide euPTX3 (cell viability) (lung cancer A549 cell [2]): could effectively inhibit the drug resistance
drug resistance induced by the polypeptide euPTX3 (cell viability) [3]: could effectively inhibit the drug resistance
drug resistance generated by the tumor [4]: reduce the drug resistance
tumor growth (tumor size) [4]: could inhibit tumor growth
tumor metastasis and growth (images of tumors of various organs, epi-fluorescence radiance efficiency) ([4]; FIG. 4C): could inhibit tumor metastasis and growth
tumor metastasis (number of metastatic nodules per lung) [4]: could inhibit tumor metastasis
tumor growth (tumor weight per lung) [4]: could inhibit tumor metastasis and growth
drug resistance generated by the tumor [5]: reduce the drug resistance
tumor growth (tumor size) [5]: could inhibit tumor growth
tumor metastasis and growth (images of tumors of various organs, epi-fluorescence radiance efficiency) ([5]; FIG. 4F): could inhibit tumor metastasis and growth
tumor metastasis (number of metastatic nodules per lung) [5]: could inhibit tumor metastasis
tumor growth (tumor weight per lung) [5]: could inhibit tumor metastasis and growth
number of spheres induced by the polypeptide euPTX3 (breast cancer MB231 cell [6]): could effectively inhibit the number of spheres
number of spheres induced by the polypeptide euPTX3 (lung cancer A549 cell [7]): could effectively inhibit the number of spheres
number of spheres induced by the polypeptide euPTX3 [8]: could effectively inhibit the number of spheres
invasive cell numbers induced by the polypeptide euPTX3 [9, 10]: could effectively inhibit the invasive cell numbers
invasive cell numbers induced by the polypeptide euPTX3 [9, 11]: could effectively inhibit the invasive cell numbers
